# Data published in patent publication US20070243273A1, “Reduction of the Deleterious Effects of Tobacco Smoking” (SaviPu Pharmaceuticals, priority 2006, published 2007).
# Experiments:
# [1] = test system: benzo[a]pyrene-induced transformation of RTE cells; test: rat tracheal epithelial (RTE) cell focus inhibition assay; assay type: cell-based
# Procedure: (§1) The rat tracheal epithelial (RTE) cell focus inhibition assay was used to identify potential chemopreventive activity of tanshinone IIA. Tanshinone IIA was evaluated for its ability to inhibit benzo[a]pyrene-induced transformation of RTE cells. Tracheal epithelial cells were isolated from 8-12 week-old male Fisher 344 rats and plated on collagen coated dishes. Initially, a nontoxic concentration of tanshinone IIA was determined by treating RTE cells with a range of 1.5 nM to 3000 nM of tanshinone IIA. […] About 10% cells survived at a concentration of 1500 nM. Freshly isolated RTE cells were exposed to benzo[a]pyrene alone or in combination with tanshinone IIA. Benzo[a]pyrene was washed out after an exposure of 24 h. The maximal non-toxic concentration and four half log concentrations of tanshinone IIA (300 nM to 3 nM) were used for the chemopreventive assay. After 30 days in culture, transformed foci were scored and inhibition was quantitated. […] A positive control of retinoic acid inhibited the transformation frequency by 50% at 1 nM.
# RTE cells = test: toxicity of tanshinone IIA to RTE cells; assay type: cell-based, rat
# Procedure: as §1
SMILES,prevention of benzo[a]pyrene-induced transformation of rat tracheal epithelial cells ([1]; 3 nM),"inhibition of transformation frequency ([1]; each dose level, 300 nM to 3 nM, benzo[a]pyrene exposure 24 h, foci scored after 30 days in culture)",cells survived (RTE cells; 1500 nM),concentration found nontoxic to RTE cells (RTE cells; tested range 1.5 nM to 3000 nM) [nM],toxicity to the cells (RTE cells; very low concentrations (3 nM)),"inhibition at 0.001 µM ([1]; Rattus norvegicus, 1 nM, positive control, read-out: inhibition of transformation frequency) [%]"
Cc1coc2c1C(=O)C(=O)c1c-2ccc2c1CCCC2(C)C [Tanshinone IIA],totally prevented,complete inhibition,About 10%,≤ 150,nontoxic,–
"CC1=C(/C=C/C(C)=C/C=C/C(C)=C/C(=O)O)C(C)(C)CCC1 [retinoic acid, reference compound]",–,–,–,–,–,50
